# PubChem BioAssay AID652137 (The Scripps Research Institute Molecular Screening Center, 2013)
# The source made the active and inactive calls. The rule behind the calls is not given here.
# Molecular target: Hepatocyte nuclear factor 4-alpha (Homo sapiens) (UniProt P41235)
# Assay: HNF4 dimerization inhibitors, late-stage follow-up, counter-screen for ABHD5-PLIN5 interaction inhibitor project, biochemical, luminescence, dose response, round 3 (AID 652137)
# Settings: luminescence biochemical assay
# Chain of Hepatocyte nuclear factor 4-alpha (Homo sapiens) (P41235 whole entry, looked up): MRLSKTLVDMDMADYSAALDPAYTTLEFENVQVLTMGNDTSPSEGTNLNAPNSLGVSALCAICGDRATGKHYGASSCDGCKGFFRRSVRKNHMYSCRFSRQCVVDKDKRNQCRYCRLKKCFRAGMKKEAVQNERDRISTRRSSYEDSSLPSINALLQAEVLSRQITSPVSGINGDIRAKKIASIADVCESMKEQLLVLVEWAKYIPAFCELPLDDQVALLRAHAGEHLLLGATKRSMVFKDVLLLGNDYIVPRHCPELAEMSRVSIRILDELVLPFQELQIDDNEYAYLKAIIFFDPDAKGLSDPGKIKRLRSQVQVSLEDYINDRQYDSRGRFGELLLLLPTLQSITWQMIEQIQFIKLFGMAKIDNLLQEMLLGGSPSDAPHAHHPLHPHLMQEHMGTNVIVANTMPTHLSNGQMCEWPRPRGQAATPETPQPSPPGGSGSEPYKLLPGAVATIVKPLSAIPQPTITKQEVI
row,Structure (SMILES),IC50
1,CCCCNC(=O)Nc1ccc2c(c1)N(C)C(=O)c1ccccc1S2,> 39.8 µM (inactive)
2,CN1C(=O)c2ccccc2Sc2ccc(NC(=O)NCCCc3ccccc3)cc21,> 39.8 µM (inactive)
3,CCCCCNC(=O)Nc1ccc2c(c1)N(C)C(=O)c1ccccc1S2,> 39.8 µM (inactive)
4,CCCCCCNC(=O)Nc1ccc2c(c1)N(C)C(=O)c1ccccc1S2,> 39.8 µM (inactive)
5,CCCCCCCNC(=O)Nc1ccc2c(c1)N(C)C(=O)c1ccccc1S2,> 39.8 µM (inactive)
